One assay concerns the target Abl(h) (Homo sapiens, UniProt P00519). Description: KinaseProfiler kinase assay. Format: biochemical.
A further assay addresses T1, Aurora-A(h) (Homo sapiens, UniProt O14965).
T1 sequence (O14965 1-403): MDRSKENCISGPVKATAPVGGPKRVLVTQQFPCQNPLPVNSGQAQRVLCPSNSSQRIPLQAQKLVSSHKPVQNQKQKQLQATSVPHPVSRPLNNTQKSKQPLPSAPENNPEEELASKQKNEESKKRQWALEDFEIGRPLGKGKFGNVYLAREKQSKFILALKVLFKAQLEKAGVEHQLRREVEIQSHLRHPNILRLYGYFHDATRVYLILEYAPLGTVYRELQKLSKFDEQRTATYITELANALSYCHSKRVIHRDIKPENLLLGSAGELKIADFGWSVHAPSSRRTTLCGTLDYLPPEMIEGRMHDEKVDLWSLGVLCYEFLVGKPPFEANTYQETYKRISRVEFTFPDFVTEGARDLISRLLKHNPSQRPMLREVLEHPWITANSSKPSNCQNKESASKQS
Description: KinaseProfiler kinase assay. Format: biochemical. The conditions noted are these: for inhibition at 1 µM: read-out: % Inhibition @1 μM Auroro-A. A digest of the protocol:
(§1)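 Steps: compound diluted from DMSO into MOPS/BSA assay buffer; MgATP mix with [γ-33P]ATP added to start; 40 min incubation at room temperature; phosphoric acid stop; filtermat spotting, washing in 50 mM phosphoric acid and methanol; scintillation counting.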

The next assay addresses T2, Flt3(h) (Homo sapiens, UniProt P36888).
T2 sequence (P36888 27-993): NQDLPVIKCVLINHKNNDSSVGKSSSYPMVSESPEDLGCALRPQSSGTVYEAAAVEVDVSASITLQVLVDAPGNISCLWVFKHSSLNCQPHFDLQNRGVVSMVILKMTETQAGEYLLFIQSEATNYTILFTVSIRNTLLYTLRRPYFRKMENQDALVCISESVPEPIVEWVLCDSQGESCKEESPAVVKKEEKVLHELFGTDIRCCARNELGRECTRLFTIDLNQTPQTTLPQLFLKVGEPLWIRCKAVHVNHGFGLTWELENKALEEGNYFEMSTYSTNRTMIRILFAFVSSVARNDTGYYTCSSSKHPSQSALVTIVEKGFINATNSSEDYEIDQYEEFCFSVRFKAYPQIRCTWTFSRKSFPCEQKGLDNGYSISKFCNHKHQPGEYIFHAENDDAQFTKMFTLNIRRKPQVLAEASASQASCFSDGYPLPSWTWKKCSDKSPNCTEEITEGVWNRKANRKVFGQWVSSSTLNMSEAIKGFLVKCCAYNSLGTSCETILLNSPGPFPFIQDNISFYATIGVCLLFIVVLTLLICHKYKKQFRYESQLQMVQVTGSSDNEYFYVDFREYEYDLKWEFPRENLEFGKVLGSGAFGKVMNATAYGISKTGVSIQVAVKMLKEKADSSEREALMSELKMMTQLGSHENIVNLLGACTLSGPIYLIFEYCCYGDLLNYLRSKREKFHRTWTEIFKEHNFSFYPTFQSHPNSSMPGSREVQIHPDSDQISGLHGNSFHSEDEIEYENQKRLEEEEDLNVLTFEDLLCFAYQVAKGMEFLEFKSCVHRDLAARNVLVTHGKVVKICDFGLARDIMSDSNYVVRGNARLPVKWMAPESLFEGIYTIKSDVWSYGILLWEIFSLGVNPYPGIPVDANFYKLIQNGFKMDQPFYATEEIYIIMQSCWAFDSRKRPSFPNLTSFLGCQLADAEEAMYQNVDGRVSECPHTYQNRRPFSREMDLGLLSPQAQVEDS
Description: KinaseProfiler kinase assay. Format: biochemical. A digest of the protocol: as §1

For a further assay, the target named is Ret(h) (Homo sapiens, UniProt P07949). Description: KinaseProfiler kinase assay. Format: biochemical. A digest of the protocol: as §1
The target of the next assay is cSRC(h) (Homo sapiens, UniProt P12931). Description: KinaseProfiler kinase assay. Format: biochemical. A digest of the protocol: as §1
Another assay deals with KDR(h) (Homo sapiens, UniProt P35968). Description: KinaseProfiler kinase assay. It is filed as biochemical.
The next assay concerns K562. Description: CellTiterBlue cell growth inhibition. Format: cell-based. To be noted: Homo sapiens; K562, 72 hours. On the procedure: (§2) This example illustrated the proliferating cell growth inhibition of selected compounds from this invention. To do this, the cells were seeded into fresh Iscove's growth medium at a density of 0.4e6 cells/ml and grown in log phase for 24 hr. Cells were then resuspended in their fresh respective growth media at 0.1e^6 cells/ml and plated into 384 well black, clear-bottom microplates at 36 ul/well. Test compounds and controls were initially dissolved in DMSO at the desired concentration, then serially diluted to the assay buffer. These solutions were added and cells were incubated for 72 hours at 37° C. CellTiterBlue (Promega cat# G7572) was added on the Beckman FX. Plates were returned to the 37° C. CO2 incubator for 4 hr and then fluorescence was determined on the Victor plate reader. Data were processed using Microsoft Excel, and GI50 values were generated using Prism (GraphPad Software, San Diego, Calif.).

A further assay relates to KU812. Description: CellTiterBlue cell growth inhibition. It is filed as cell-based. To be noted: Homo sapiens; KU812, 72 hours. Here is the method:
as §2
On the technique in general: Resazurin is reduced to fluorescent resorufin, in cell work by metabolically active cells.

A further assay deals with MV4.11. Description: CellTiterBlue cell growth inhibition. Format: cell-based. The conditions noted are these: Homo sapiens; MV4.11, 72 hours. On the procedure: as §2
A further assay has as its system RS4.11. Description: CellTiterBlue cell growth inhibition. Format: cell-based. The conditions noted are these: Homo sapiens; RS4.11, 72 hours. On the procedure:
as §2

The subject of assay [1] is human MIAPaCa-2 pancreatic carcinoma xenograft. Description: Pancreatic carcinoma xenograft in athymic nude mice. It is filed as in vivo, mouse. The conditions noted are these: MIAPaCa-2 xenograft, nude mice, single agent. Here is the method: The objective of the third study was to evaluate antitumor activities of novel multiple-kinase inhibitor NTW-3475 in human MIAPaCa-2 pancreatic carcinoma xenograft in athymic nude-Faxn1 mice.
Four animals were randomly assigned to study groups. Each animal was weighed, and then injected subcutaneously in the left and right flank area with 0.1 ml of 5.0×10^7 MIAPaCa-2 cells per mL.
Each test or control animal was on a 5-day on, two-day off for two cycles treatment schedule with negative control vehicle, positive control Abraxane at 20 mg/kg or 25, 50 mg/kg of NTW-3475. Tumor growth was measured with a digital hand held caliper twice weekly (once tumor emerges) prior to the first dosing and then two to three times weekly until euthanized.
The objective of the third study was to evaluate antitumor activities of novel multiple-kinase inhibitor Compound 10, 11, 12, 53, 68, 82, 83, 88, and 90 in human MIAPaCa-2 pancreatic carcinoma xenograft in athymic nude-Faxn1 mice.
Each test or control animal was on a 5-day on, two-day off for three cycles treatment schedule with negative control vehicle or 40 mg/kg of Compound 10, 11, 12, 53, 68, 82, 83, 88 and 90. Tumor growth was measured with a digital hand held caliper twice weekly (once tumor emerges) prior to the first dosing and then two to three times weekly until euthanized.

Another assay concerns AN3.CA. Description: CellTiterBlue cell growth inhibition. The conditions noted are these: Homo sapiens, 72 hours. It is filed as cell-based. Here is the method: as §2
In another assay the test system is TT. Description: CellTiterBlue cell growth inhibition. It is filed as cell-based. To be noted: Homo sapiens, 72 hours. On the procedure: as §2

Chain of KDR(h) (P35968 20-1356): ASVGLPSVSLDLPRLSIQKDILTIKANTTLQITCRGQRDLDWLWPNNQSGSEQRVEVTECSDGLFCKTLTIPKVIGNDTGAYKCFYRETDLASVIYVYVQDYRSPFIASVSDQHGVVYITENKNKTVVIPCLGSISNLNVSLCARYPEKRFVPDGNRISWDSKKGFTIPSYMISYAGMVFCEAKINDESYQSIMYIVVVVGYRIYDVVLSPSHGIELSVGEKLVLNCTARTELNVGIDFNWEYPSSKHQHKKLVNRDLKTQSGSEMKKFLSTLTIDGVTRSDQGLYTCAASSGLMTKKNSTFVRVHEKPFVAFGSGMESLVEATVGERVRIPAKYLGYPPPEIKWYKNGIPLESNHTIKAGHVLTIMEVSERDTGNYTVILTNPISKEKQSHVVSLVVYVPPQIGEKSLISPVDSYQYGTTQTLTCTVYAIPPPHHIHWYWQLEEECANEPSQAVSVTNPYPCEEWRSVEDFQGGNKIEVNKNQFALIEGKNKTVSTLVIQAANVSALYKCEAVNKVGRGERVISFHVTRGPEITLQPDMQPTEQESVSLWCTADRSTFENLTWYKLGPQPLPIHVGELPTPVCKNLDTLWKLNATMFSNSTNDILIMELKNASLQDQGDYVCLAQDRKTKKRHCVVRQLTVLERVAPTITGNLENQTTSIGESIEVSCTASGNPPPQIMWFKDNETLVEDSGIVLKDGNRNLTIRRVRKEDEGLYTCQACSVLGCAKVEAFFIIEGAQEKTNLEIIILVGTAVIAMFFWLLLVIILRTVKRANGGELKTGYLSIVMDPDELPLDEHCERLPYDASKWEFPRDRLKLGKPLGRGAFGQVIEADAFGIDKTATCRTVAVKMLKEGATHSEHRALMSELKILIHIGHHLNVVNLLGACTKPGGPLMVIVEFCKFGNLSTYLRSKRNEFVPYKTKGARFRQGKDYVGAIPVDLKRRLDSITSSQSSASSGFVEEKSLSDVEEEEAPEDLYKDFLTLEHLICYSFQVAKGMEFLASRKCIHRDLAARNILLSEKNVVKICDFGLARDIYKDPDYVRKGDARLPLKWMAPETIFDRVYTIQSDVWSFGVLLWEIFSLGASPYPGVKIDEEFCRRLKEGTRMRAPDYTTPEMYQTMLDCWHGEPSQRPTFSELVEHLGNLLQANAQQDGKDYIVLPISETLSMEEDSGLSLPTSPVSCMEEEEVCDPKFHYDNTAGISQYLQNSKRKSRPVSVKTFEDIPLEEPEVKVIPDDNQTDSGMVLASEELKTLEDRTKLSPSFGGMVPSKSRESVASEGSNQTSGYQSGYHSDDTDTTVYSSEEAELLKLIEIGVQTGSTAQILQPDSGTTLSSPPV
Chain of Abl(h) (P00519 whole entry): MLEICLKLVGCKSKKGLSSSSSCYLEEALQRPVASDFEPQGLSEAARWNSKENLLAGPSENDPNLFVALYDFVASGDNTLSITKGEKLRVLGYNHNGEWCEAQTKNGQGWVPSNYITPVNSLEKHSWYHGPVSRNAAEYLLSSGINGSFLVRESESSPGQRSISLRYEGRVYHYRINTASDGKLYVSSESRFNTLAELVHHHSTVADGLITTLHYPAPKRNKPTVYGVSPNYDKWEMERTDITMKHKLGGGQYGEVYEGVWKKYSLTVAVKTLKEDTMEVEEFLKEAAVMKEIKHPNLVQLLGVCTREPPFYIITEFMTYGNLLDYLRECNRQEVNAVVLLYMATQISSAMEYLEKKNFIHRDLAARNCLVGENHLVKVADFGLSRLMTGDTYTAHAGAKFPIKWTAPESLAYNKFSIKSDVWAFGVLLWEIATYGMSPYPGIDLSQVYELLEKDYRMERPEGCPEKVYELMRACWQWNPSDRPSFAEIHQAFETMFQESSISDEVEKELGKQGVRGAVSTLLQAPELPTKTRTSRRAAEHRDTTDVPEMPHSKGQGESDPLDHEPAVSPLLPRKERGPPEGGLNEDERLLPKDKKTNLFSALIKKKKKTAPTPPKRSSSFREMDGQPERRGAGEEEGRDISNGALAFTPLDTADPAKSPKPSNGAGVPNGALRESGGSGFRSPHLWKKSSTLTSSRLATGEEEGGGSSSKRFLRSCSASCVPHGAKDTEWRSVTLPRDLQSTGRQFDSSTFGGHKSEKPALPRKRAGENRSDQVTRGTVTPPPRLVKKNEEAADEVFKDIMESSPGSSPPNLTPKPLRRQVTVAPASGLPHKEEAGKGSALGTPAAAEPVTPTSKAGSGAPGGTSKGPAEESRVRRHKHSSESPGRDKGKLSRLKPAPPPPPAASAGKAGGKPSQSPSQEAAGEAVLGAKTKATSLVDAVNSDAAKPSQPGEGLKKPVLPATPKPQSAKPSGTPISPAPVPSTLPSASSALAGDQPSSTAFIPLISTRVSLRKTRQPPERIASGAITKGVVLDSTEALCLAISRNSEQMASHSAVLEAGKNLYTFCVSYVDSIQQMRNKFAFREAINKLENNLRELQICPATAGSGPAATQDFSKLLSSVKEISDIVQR
Chain of cSRC(h) (P12931 whole entry): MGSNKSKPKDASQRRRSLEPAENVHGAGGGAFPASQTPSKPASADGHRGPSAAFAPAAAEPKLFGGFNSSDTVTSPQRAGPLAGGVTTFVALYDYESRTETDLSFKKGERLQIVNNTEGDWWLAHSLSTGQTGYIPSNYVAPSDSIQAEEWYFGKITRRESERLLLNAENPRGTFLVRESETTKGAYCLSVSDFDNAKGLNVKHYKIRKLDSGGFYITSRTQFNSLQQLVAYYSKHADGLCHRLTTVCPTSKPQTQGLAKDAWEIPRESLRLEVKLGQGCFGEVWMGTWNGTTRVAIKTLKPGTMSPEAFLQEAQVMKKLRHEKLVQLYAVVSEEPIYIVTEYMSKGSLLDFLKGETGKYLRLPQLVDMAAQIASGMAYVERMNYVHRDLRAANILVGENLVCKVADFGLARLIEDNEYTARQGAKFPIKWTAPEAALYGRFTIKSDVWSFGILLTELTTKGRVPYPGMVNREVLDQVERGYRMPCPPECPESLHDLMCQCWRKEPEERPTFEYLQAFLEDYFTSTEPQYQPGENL
Chain of Ret(h) (P07949 29-1114): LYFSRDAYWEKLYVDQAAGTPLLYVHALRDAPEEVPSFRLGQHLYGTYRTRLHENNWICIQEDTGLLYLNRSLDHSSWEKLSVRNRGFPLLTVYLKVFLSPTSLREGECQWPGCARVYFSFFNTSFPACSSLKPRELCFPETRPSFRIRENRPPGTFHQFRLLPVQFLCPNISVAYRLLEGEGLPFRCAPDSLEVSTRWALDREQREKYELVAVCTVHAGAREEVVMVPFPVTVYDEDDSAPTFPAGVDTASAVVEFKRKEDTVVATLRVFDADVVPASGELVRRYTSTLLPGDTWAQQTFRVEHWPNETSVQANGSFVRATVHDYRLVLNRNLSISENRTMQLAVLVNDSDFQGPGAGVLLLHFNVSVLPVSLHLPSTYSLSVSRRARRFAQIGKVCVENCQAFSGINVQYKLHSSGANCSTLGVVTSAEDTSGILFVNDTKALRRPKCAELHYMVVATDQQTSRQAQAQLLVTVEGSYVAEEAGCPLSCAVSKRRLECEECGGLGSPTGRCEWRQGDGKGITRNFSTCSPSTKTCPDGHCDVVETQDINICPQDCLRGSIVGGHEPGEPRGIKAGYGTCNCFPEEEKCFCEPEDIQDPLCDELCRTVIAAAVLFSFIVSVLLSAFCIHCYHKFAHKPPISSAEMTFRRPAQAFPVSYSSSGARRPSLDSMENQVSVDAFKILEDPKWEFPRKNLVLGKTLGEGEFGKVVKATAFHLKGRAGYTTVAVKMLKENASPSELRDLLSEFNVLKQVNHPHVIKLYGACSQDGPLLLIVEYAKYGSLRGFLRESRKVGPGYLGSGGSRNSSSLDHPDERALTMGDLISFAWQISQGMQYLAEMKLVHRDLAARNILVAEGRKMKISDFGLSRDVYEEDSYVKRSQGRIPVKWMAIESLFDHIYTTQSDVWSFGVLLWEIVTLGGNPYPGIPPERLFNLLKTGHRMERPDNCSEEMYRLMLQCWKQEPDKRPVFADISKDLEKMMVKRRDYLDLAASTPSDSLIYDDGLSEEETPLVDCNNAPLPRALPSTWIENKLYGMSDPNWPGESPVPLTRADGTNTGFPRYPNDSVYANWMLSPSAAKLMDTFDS

On to `Cc1cc2c(F)c(Oc3nc(Nc4cc(C5CC5)[nH]n4)cc(N4CCN(CCO)CC4)n3)ccc2[nH]1` [Compound 12], for which the inhibition (in general, the change of the read-out against control, counted positive when it falls) at 1 µM on Abl(h) is 112%; on Aurora-A(h), 100%; against Flt3(h) it was 100%; on Ret(h), 101%; against cSRC(h), 100%; at KDR(h) it was 96%. Moreover, the IC50 – broadly, the concentration that inhibits the measured activity by half – at Abl(h) (read-out: IC50 (nM) Abl (h)) amounted to 0.5 nM; at Aurora-A(h) (read-out: IC50 (nM) Auroro-A (h)), 2 nM; on Flt3(h) (read-out: IC50 (nM) Flt3 (h)) it was 0.3 nM; on Ret(h) (read-out: IC50 (nM) Ret (h)), 1 nM; at cSRC(h) (read-out: IC50 (nM) cSrc (h)) it was 2 nM. The GI50 (usually the concentration that inhibits growth by half) in the assay with K562 amounted to 0.28 nM; with KU812, 0.27 nM; with MV4.11 it was 0.41 nM; with RS4.11, 3.22 nM. Moreover, in assay [1], the anti-tumor effect entry is recorded as “strong anti-tumor effect”.
Regarding `Cc1cc2c(F)c(Oc3nc(Nc4cc(C5CC5)[nH]n4)cc(N4CCN(CCO)CC4)n3)cc(F)c2[nH]1` [Compound 83], the inhibition at 1 µM on Abl(h) was found to be 110%; at Aurora-A(h), 100%; at Flt3(h), 99%; against Ret(h), 101%; against cSRC(h) it was 99%; against KDR(h), 96%. In addition, the concentration for 50% growth inhibition (GI50) in the assay with K562 amounted to 0.55 nM; with KU812 it was 0.67 nM; in the assay on MV4.11 it was 0.4 nM; in the assay on RS4.11, 3.3 nM. Further, the anti-tumor effect entry in assay [1] is “strong anti-tumor effect”.
Take `C/C=C/c1cc(Nc2cc(N3CCNCC3)nc(Oc3cc(F)c4[nH]c(C)cc4c3F)n2)n[nH]1` [Compound 90]: the inhibition at 1 µM on Abl(h) is 112%; on Aurora-A(h), 100%; on Flt3(h), 100%; on Ret(h), 99%; on cSRC(h), 101%; on KDR(h), 95%. Besides, the GI50 was determined as 2 nM in the assay with AN3.CA; 0.85 nM with K562; 0.9 nM with KU812; 0.13 nM in the assay on MV4.11; 5.07 nM in the assay with RS4.11; 3.8 nM in the assay with TT. The anti-tumor effect result in assay [1] is given as “strong anti-tumor effect”.
Regarding `C/C=C/c1cc(Nc2cc(N3CCOCC3)nc(Oc3ccc4c(cc(C)n4C)c3F)n2)n[nH]1` [Compound 121], the inhibition at 1 µM against Abl(h) is 116%; on Aurora-A(h) it was 91%; at Flt3(h), 102%; at Ret(h), 102%; at cSRC(h), 104%; at KDR(h), 92%.
Turning to `Cc1cc2c(F)c(Oc3nc(Nc4cc(C5CC5)[nH]n4)cc(N4CCN(C)CC4)n3)ccc2n1C` [Compound 122], the inhibition at 1 µM against Abl(h) is 109%; at Aurora-A(h), 101%; against Flt3(h), 102%; on Ret(h) it was 101%; against cSRC(h) it was 104%; against KDR(h) it was 91%.
As to `Cc1cc2c(F)c(Oc3nc(Nc4cc(C5CC5)[nH]n4)cc(N4CCOCC4)n3)ccc2n1C` [Compound 123], the inhibition at 1 µM amounted to 114% on Abl(h); 100% on Aurora-A(h); 101% at Flt3(h); 102% at Ret(h); 104% on cSRC(h); 88% against KDR(h).

(Values after patent US10245261B2, “Substituted indol-5-ol derivatives and their therapeutic applications” (NantBioScience, Inc., priority 2013, dated 2019).)
